Legend:
Assay type in all cases: in vivo
[1] = system: Tetranychus urticae; experiment: Tetranychus urticae spray test, OP-resistant (TETRUR)
Procedure, shortened: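 Bean leaf discs infested with all stages of OP-resistant Tetranychus urticae were sprayed with compound formulated in solvent and water containing 1000 ppm emulsifier. Efficacy was scored after 6 days as % mites killed (100% = all killed).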

[2] = system: Phaedon cochleariae; experiment: Phaedon cochleariae spray test (PHAECO), Chinese cabbage leaf discs; conditions: Phaedon cochleariae, foliar, 168 h; for pest or weed control at 100 g/ha: 7 days (7 dat), read-out: efficacy
Procedure, shortened: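 Chinese cabbage (Brassica pekinensis) leaf discs sprayed with compound in water with 1000 ppm emulsifier, then after drying infested with Phaedon cochleariae larvae. Efficacy (% larvae killed) scored after 7 days or the chosen interval.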

[3] = system: Myzus persicae; experiment: Myzus persicae oral test; conditions: 120 h, after 5 days, read-out: efficacy
Procedure, shortened: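 Compound solution in IPL41 insect medium with sugar was sealed under parafilm, through which a mixed population of green peach aphids fed. Mortality was scored after 5 days as % efficacy, with 100% meaning all aphids killed.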

[4] = system: Meloidogyne incognita; experiment: Meloidogyne incognita test (MELGIN); conditions: Meloidogyne incognita, 336 h, 14 days (14 dat), read-out: efficacy (nematicidal, gall formation)
Procedure, shortened: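 Sand with lettuce seeds, M. incognita egg/larvae suspension and aqueous dilution of compound concentrate. Nematicidal efficacy scored from gall (root-knot) formation after 14 days or the desired time, as % relative to untreated control (100% = no galls; 0% = as control).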

[5] = system: Nezara viridula; experiment: Nezara viridula spray test (NEZARA / NEZAVI); conditions: Nezara viridula, 96 h, 4 g/ha, 4 dat, read-out: % efficacy
Procedure, shortened: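 Barley plants infested with Nezara viridula larvae were sprayed with active ingredient in solvent/emulsifier water (1000 ppm emulsifier; ammonium salt or penetrant at 1000 ppm if added). Efficacy scored as % mortality after the set time (100% = all bugs killed).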

[6] = system: Ctenocephalides felis; experiment: Ctenocephalides felis oral test; conditions: 100 ppm, after 2 days
Description: Solvent: dimethyl sulfoxide To produce a suitable active ingredient formulation, 10 mg of active ingredient are mixed with 0.5 ml of dimethyl sulfoxide. Dilution with citrated cattle blood gives the desired concentration. About 20 unfed adult cat fleas (Ctenocephalides felis) are placed into a chamber which is closed at the top and bottom with gauze. A metal cylinder whose bottom end is closed with parafilm is placed onto the chamber. The cylinder contains the blood/active ingredient formulation, which can be imbibed by the fleas through the parafilm membrane. After 2 days, the kill in % is determined. 100% means that all of the fleas have been killed; 0% means that none of the fleas have been killed.

[7] = system: Ctenocephalides felis; experiment: Ctenocephalides felis in vitro contact test with adult cat fleas; conditions: 5 μg/cm^2 (=500 g/ha), after 48 h
Description: For the coating of the test tubes, 9 mg of active ingredient are first dissolved in 1 ml of acetone p.a. and then diluted to the desired concentration with acetone p.a. 250 μl of the solution are distributed homogeneously on the inner walls and the base of a 25 ml glass tube by turning and rocking on an orbital shaker (rocking rotation at 30 rpm for 2 h). With 900 ppm of active ingredient solution and internal surface area 44.7 cm^2, given homogeneous distribution, an area-based dose of 5 μg/cm^2 is achieved. After the solvent has evaporated off, the tubes are populated with 5-10 adult cat fleas (Ctenocephalides felis), sealed with a perforated plastic lid and incubated in a horizontal position at room temperature and ambient humidity. After 48 h, efficacy is determined. To this end, the tubes are stood upright and the fleas are knocked to the base of the tube. Fleas which remain motionless at the base or move in an uncoordinated manner are considered to be dead or moribund. […] 100% efficacy means that all the fleas were dead or moribund. 0% efficacy means that no fleas were harmed.

[8] = Tetranychus urticae, 144 h, TETRUR, 6 dat, read-out: % efficacy

With CCS(=O)(=O)c1ccc(NC(=O)NC)nc1-c1nc2cc(C(F)(F)C(F)(F)F)nnc2n1C [Example I-08, 1-{5-(ethylsulfonyl)-6-[7-methyl-3-(pentafluoroethyl)-7H-imidazo[4,5-c]pyridazin-6-yl]pyridin-2-yl}-3-methylurea] the efficacy ([1]; 4 g/ha, after 6 days) was 90%, the Emax at 20 g/ha ([1]; Tetranychus urticae, 144 h, TETRUR, 20 g/ha, 6 dat, read-out: % efficacy) was 70% and the Emax at 100 g/ha [1, 8] was 70%. For the same compound, the pest or weed control at 100 g/ha [2] was 100%, the pest or weed control at 0.8 ppm [3] was 90% and the pest or weed control at 20 ppm [4] was 100%. For the same compound, the Emax at 4 g/ha [5] was 90% and the “efficacy (kill)” value [6] was 100%.

In the case of CCS(=O)(=O)c1ccc(N(C)C(=O)NC)nc1-c1nc2cc(C(F)(F)C(F)(F)F)nnc2n1C [Example I-09], the Emax at 100 g/ha [1, 8] is reported as 70%, the efficacy [7] is reported as 100% and the pest or weed control at 100 g/ha [2] is reported as 100%. The Emax at 4 g/ha ([2]; PHAECO, 4 g/ha, 7 dat, read-out: % efficacy) was 83%, the percent efficacy (larval mortality) at a fixed application rate at 20 g/ha ([2]; PHAECO, 7 dat) was 100% and the pest or weed control at 0.8 ppm [3] was 90%. The pest or weed control at 20 ppm [4] was 100%, the Emax at 4 g/ha [5] was 70% and the “efficacy (kill)” value [6] was 100%.

CCS(=O)(=O)c1ccc(NC(=O)N(C)C)nc1-c1nc2cc(C(F)(F)C(F)(F)F)nnc2n1C [Example I-10] gave an Emax at 100 g/ha [1, 8] of 70%, an efficacy [7] of 100% and a pest or weed control at 100 g/ha [2] of 100%. For the same compound, the pest or weed control at 0.8 ppm [3] was 100%, the pest or weed control at 20 ppm [4] was 100% and the Emax at 4 g/ha [5] was 80%. The “efficacy (kill)” value [6] was 100%.

Work on CCNC(=O)Nc1ccc(S(=O)(=O)CC)c(-c2nc3cc(C(F)(F)C(F)(F)F)nnc3n2C)n1 [Example I-13] yielded an efficacy [7] of 100%, a pest or weed control at 100 g/ha [2] of 100% and a percent efficacy (larval mortality) at a fixed application rate at 4 g/ha ([2]; PHAECO, 4 g/ha, 7 dat) of 100%. The percent efficacy (larval mortality) at a fixed application rate at 20 g/ha ([2]; PHAECO, 7 dat) was 100%, the pest or weed control at 0.8 ppm [3] was 100% and the pest or weed control at 20 ppm [4] was 100%. The Emax at 4 g/ha [5] was 80% and the “efficacy (kill)” value [6] was 100%.

Reference: patent publication US11089783B2, “2-(het)aryl-substituted fused heterocycle derivatives as pesticides” (Bayer Aktiengesellschaft, priority 2017, dated 2021)
